Data: patent US12421210B2, “Fused bicyclic heterocycles as therapeutic agents” (NEW YORK UNIVERSITY, priority 2018, dated 2025)

molecular target: human NAMPT enzyme (His-hNAMPT) (Homo sapiens (Human), UniProt P43490); assay: NAMPT enzymatic inhibition assay (fluorescence, NADH product); format: biochemical; details: [BPS]; read-out: NAMPT IC50 (μM) [BPS]
Sequence (P43490 whole entry): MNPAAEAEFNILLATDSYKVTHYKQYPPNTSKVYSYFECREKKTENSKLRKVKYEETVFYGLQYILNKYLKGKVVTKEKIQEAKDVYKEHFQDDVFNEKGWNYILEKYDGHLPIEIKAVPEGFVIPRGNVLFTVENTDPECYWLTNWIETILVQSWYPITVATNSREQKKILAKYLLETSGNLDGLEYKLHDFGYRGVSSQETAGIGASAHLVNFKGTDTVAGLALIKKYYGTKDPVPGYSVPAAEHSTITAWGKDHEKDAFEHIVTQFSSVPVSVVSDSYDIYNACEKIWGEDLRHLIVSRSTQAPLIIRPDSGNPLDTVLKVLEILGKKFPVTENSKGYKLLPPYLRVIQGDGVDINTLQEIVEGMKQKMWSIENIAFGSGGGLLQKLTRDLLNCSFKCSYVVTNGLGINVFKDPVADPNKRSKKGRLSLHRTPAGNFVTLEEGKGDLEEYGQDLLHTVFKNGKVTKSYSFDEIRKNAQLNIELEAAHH

First: CC(C)(C)OC(=O)N1C[C@@H]2[C@@H](CCNC(=O)N3Cc4ccccc4C3)[C@@H]2C1 [Example 15, (1R,5S,6s)-tert-butyl 6-(2-(isoindoline-2-carboxamido)ethyl)-3-azabicyclo[3.1.0]hexane-3-carboxylate]
Second: CC(C)(C)OC(=O)N1C[C@@H]2[C@@H](CCNC(=O)/C=C/c3cccnc3)[C@@H]2C1 [Example 1, (1R,5S,6s)-tert-butyl 6-(2-((E)-3-(pyridin-3-yl)acrylamido)ethyl)-3-azabicyclo[3.1.0]hexane-3-carboxylate]
The IC50 of the first is higher: 0.01 to 0.49 µM for the first, under 0.01 µM for the second.

First: O=C(/C=C/c1cccnc1)NC[C@@H]1[C@H]2CN(C(=O)c3ccccc3)C[C@@H]12 [Example 237, (E)-N-(((1R,5S,6s)-3-benzoyl-3-azabicyclo[3.1.0]hexan-6-yl)methyl)-3-(pyridin-3-yl)acrylamide]
Second: CC(C)(C)OC(=O)N1C[C@@H]2[C@@H](CNC(=O)/C=C/c3cccnc3)[C@@H]2C1 [Example 232, (1R,5S,6s)-tert-butyl 6-(((E)-3-(pyridin-3-yl)acrylamido)methyl)-3-azabicyclo[3.1.0]hexane-3-carboxylate]
The IC50 of the first is higher: 0.5 to 0.99 µM for the first, 0.01 to 0.49 µM for the second.

`O=C(/C=C/c1cccnc1)NCC[C@@H]1[C@H]2CN(c3nc4ccccc4s3)C[C@@H]12` [Example 124, (E)-N-(2-((1R,5S,6s)-3-(benzo[d]thiazol-2-yl)-3-azabicyclo[3.1.0]hexan-6-yl)ethyl)-3-(pyridin-3-yl)acrylamide] and `O=C(NCC[C@@H]1[C@H]2CN(c3ncccn3)C[C@@H]12)c1cc2ccncc2o1` [Example 119, N-(2-((1R,5S,6s)-3-(pyrimidin-2-yl)-3-azabicyclo[3.1.0]hexan-6-yl)ethyl)furo[2,3-c]pyridine-2-carboxamide] fall in the same range of IC50: 0.01 to 0.49 µM for the first, 0.01 to 0.49 µM for the second.

`Cc1nn(C)c(C)c1C(=O)N1C[C@@H]2[C@@H](CCNC(=O)/C=C/c3ccc(N)nc3)[C@@H]2C1` [Example 88, (E)-3-(6-aminopyridin-3-yl)-N-(2-((1R,5S,6s)-3-(1,3,5-trimethyl-1H-pyrazole-4-carbonyl)-3-azabicyclo[3.1.0]hexan-6-yl)ethyl)acrylamide] and `Nc1ccc(/C=C/C(=O)NCC[C@@H]2[C@H]3CN(C(=O)OC4CCOCC4)C[C@@H]23)cn1` [Example 41, (1R,5S,6s)-tetrahydro-2H-pyran-4-yl 6-(2-((E)-3-(6-aminopyridin-3-yl)acrylamido)ethyl)-3-azabicyclo[3.1.0]hexane-3-carboxylate] fall in the same range of IC50: 0.01 to 0.49 µM for the first, 0.01 to 0.49 µM for the second.

First: O=C(NCC[C@@H]1[C@H]2CN(c3ccccc3)C(=O)[C@@H]12)c1cc2ccncc2o1 (racemic) [Example 260, N-(2-((1R,5S,6S)-2-oxo-3-phenyl-3-azabicyclo[3.1.0]hexan-6-yl)ethyl)furo[2,3-c]pyridine-2-carboxamide and N-(2-((1S,5R,6R)-2-oxo-3-phenyl-3-azabicyclo[3.1.0]hexan-6-yl)ethyl)furo[2,3-c]pyridine-2-carboxamide]
Second: O=C(NCC[C@@H]1[C@H]2CN(C(=O)c3ccc(F)cc3)C[C@@H]12)c1cc2ccncc2o1 [Example 97, N-(2-((1R,5S,6s)-3-(4-fluorobenzoyl)-3-azabicyclo[3.1.0]hexan-6-yl)ethyl)furo[2,3-c]pyridine-2-carboxamide]
The IC50 of the first is higher: 0.5 to 0.99 µM for the first, 0.01 to 0.49 µM for the second.

`CC(C)(C)NC(=O)N1C[C@@H]2[C@@H](CCNC(=O)c3cc4cnccc4[nH]3)[C@@H]2C1` [Example 82, N(2-((1R,5S,6s)-3-(tert-butylcarbamoyl)-3-azabicyclo[3.1.0]hexan-6-yl)ethyl)-1H-pyrrolo[3,2-c]pyridine-2-carboxamide] and `CC(C)(C)NC(=O)N1C[C@@H]2[C@@H](CCNC(=O)c3cc4ccncc4o3)[C@@H]2C1` [Example 56, N-(2-((1R,5S,6s)-3-(tert-butylcarbamoyl)-3-azabicyclo[3.1.0]hexan-6-yl)ethyl)furo[2,3-c]pyridine-2-carboxamide] fall in the same range of IC50: 0.01 to 0.49 µM for the first, 0.01 to 0.49 µM for the second.

First: CC(C)(C)OC(=O)N1C[C@@H]2[C@@H](CNC(=O)COc3cccnc3)[C@@H]2C1 [Example 233, (1R,5S,6s)-tert-butyl 6-((2-(pyridin-3-yloxy)acetamido)methyl)-3-azabicyclo[3.1.0]hexane-3-carboxylate]
Second: CC1(OC(=O)N2C[C@@H]3[C@@H](CNC(=O)/C=C/c4cccnc4)[C@@H]3C2)COC1 [Example 238, (1R,5S,6s)-3-methyloxetan-3-yl 6-(((E)-3-(pyridin-3-yl)acrylamido)methyl)-3-azabicyclo[3.1.0]hexane-3-carboxylate]
The IC50 of the first is higher: over 30 µM for the first, 1 to 29 µM for the second. The second is the more potent here.

`CC1(OC(=O)N2C[C@@H]3[C@@H](CCNC(=O)c4cc(-c5cccnc5)on4)[C@@H]3C2)COC1` [Example 50, (1R,5S,6s)-3-methyloxetan-3-yl 6-(2-(5-(pyridin-3-yl)isoxazole-3-carboxamido)ethyl)-3-azabicyclo[3.1.0]hexane-3-carboxylate] and `CC1(OC(=O)N2C[C@@H]3[C@@H](CCNC(=O)c4ccc5ncsc5c4)[C@@H]3C2)COC1` [Example 44, (1R,5S,6s)-3-methyloxetan-3-yl 6-(2-(benzo[d]thiazole-6-carboxamido)ethyl)-3-azabicyclo[3.1.0]hexane-3-carboxylate] fall in the same range of IC50: 0.01 to 0.49 µM for the first, 0.01 to 0.49 µM for the second.

Compared with `O=C(NCC[C@@H]1[C@H]2CN(C(=O)Nc3ccccc3)C[C@@H]12)c1ccc2nccn2c1` [Example 65, N-(2-((1R,5S,6s)-3-(phenylcarbamoyl)-3-azabicyclo[3.1.0]hexan-6-yl)ethyl)imidazo[1,2-a]pyridine-6-carboxamide], `CC(C)(C)OC(=O)N1CCC2CC(CNC(=O)N3Cc4ccncc4C3)CC2C1` (centres unmarked) [Example 272, tert-butyl 6-((2,3-dihydro-1H-pyrrolo[3,4-c]pyridine-2-carboxamido)methyl)hexahydro-1H-cyclopenta[c]pyridine-2(3H)-carboxylate] is lower in IC50: 1 to 29 µM for the first, 0.01 to 0.49 µM for the second. The second is the more potent here.

same assay, conditions: [HDB]; read-out: NAMPT IC50 (μM) [HDB]

First: O=C(/C=C/c1cccnc1)NCC[C@@H]1[C@H]2CN(c3ncc4c(n3)CCOC4)C[C@@H]12 [Example 166, (E)-N-(2-((1R,5S,6s)-3-(7,8-dihydro-5H-pyrano[4,3-d]pyrimidin-2-yl)-3-azabicyclo[3.1.0]hexan-6-yl)ethyl)-3-(pyridin-3-yl)acrylamide]
Second: O=C(/C=C/c1cccnc1)NCC[C@@H]1[C@H]2CN(c3nc(N4CCC(O)C4)ncc3F)C[C@@H]12 (stereo partly drawn) [Example 326, (E)-N-(2-((1R,5S,6s)-3-(5-fluoro-2-(3-hydroxypyrrolidin-1-yl)pyrimidin-4-yl)-3-azabicyclo[3.1.0]hexan-6-yl)ethyl)-3-(pyridin-3-yl)acrylamide]
The IC50 of the first is higher: 0.01 to 0.49 µM for the first, under 0.01 µM for the second.

First: O=C(/C=C/c1cccnc1)NCC[C@@H]1[C@H]2CN(c3nccc(C(F)(F)F)n3)C[C@@H]12 [Example 169, (E)-3-(pyridin-3-yl)-N-(2-((1R,5S,6s)-3-(4-(trifluoromethyl)pyrimidin-2-yl)-3-azabicyclo[3.1.0]hexan-6-yl)ethyl)acrylamide]
Second: O=C(/C=C/c1cccnc1)NCC[C@@H]1[C@H]2CN(c3ncc(C(F)(F)F)cn3)C[C@@H]12 [Example 162, (E)-3-(pyridin-3-yl)-N-(2-((1R,5S,6s)-3-(5-(trifluoromethyl)pyrimidin-2-yl)-3-azabicyclo[3.1.0]hexan-6-yl)ethyl)acrylamide]
The IC50 of the first is lower: under 0.01 µM for the first, 0.01 to 0.49 µM for the second.

Compared with `CC(C)(C)OC(=O)N1C[C@@H]2[C@@H](CNC(=O)COc3cccnc3)[C@@H]2C1` [Example 233, (1R,5S,6s)-tert-butyl 6-((2-(pyridin-3-yloxy)acetamido)methyl)-3-azabicyclo[3.1.0]hexane-3-carboxylate], `CNC(=O)COc1ncc(F)c(N2C[C@@H]3[C@@H](CCNC(=O)/C=C/c4cccnc4)[C@@H]3C2)n1` [Example 328, (E)-N-(2-((1R,5S,6s)-3-(5-fluoro-2-(2-(methylamino)-2-oxoethoxy)pyrimidin-4-yl)-3-azabicyclo[3.1.0]hexan-6-yl)ethyl)-3-(pyridin-3-yl)acrylamide] is lower in IC50: 1 to 29 µM for the first, 0.01 to 0.49 µM for the second. The second is the more potent here.

`O=C(/C=C/c1cccnc1)NCC[C@@H]1[C@H]2CN(Cc3ccc(F)cc3F)C[C@@H]12` [Example 248, (E)-N-(2-((1R,5S,6s)-3-(2,4-difluorobenzyl)-3-azabicyclo[3.1.0]hexan-6-yl)ethyl)-3-(pyridin-3-yl)acrylamide] and `O=C(/C=C/c1cccnc1)NCC[C@@H]1[C@H]2CN(c3ncc4cc(F)ccc4n3)C[C@@H]12` [Example 167, (E)-N-(2-((1R,5S,6s)-3-(6-fluoroquinazolin-2-yl)-3-azabicyclo[3.1.0]hexan-6-yl)ethyl)-3-(pyridin-3-yl)acrylamide] fall in the same range of IC50: 0.01 to 0.49 µM for the first, 0.01 to 0.49 µM for the second.

Compared with `O=C(NCC[C@@H]1[C@H]2CN(c3nc(Cl)ncc3F)C[C@@H]12)N1Cc2ccccc2C1` [Example 225, N-(2-((1R,5S,6s)-3-(2-chloro-5-fluoropyrimidin-4-yl)-3-azabicyclo[3.1.0]hexan-6-yl)ethyl)isoindoline-2-carboxamide], `O=C(O)COc1ncc(F)c(N2C[C@@H]3[C@@H](CCNC(=O)/C=C/c4cccnc4)[C@@H]3C2)n1` [Example 282, 2-((5-fluoro-4-((1R,5S,6s)-6-(2-((E)-3-(pyridin-3-yl)acrylamido)ethyl)-3-azabicyclo[3.1.0]hexan-3-yl)pyrimidin-2-yl)oxy)acetic acid] is higher in IC50: under 0.01 µM for the first, 0.01 to 0.49 µM for the second.

First: O=C(/C=C/c1cccnc1)NCC[C@@H]1[C@H]2CN(c3ccc(Cl)c(Cl)c3)C[C@@H]12 [Example 147, (E)-N-(2-((1R,5S,6s)-3-(3,4-dichlorophenyl)-3-azabicyclo[3.1.0]hexan-6-yl)ethyl)-3-(pyridin-3-yl)acrylamide]
Second: O=C(/C=C/c1cccnc1)NCC[C@@H]1[C@H]2CN(c3cnccn3)C[C@@H]12 [Example 177, (E)-N-(2-((1R,5S,6s)-3-(pyrazin-2-yl)-3-azabicyclo[3.1.0]hexan-6-yl)ethyl)-3-(pyridin-3-yl)acrylamide]
The IC50 of the first is lower: under 0.01 µM for the first, 0.01 to 0.49 µM for the second.

Compared with `O=C(/C=C/c1cccnc1)NCC[C@@H]1[C@H]2CN(c3ccc(F)cc3)C(=O)[C@@H]12` (mixture of isomers) [Example 264, (E)-N-(2-((1R,5S,6S)-3-(4-fluorophenyl)-2-oxo-3-azabicyclo[3.1.0]hexan-6-yl)ethyl)-3-(pyridin-3-yl)acrylamide and (E)-N-(2-((1S,5R,6R)-3-(4-fluorophenyl)-2-oxo-3-azabicyclo[3.1.0]hexan-6-yl)ethyl)-3-(pyridin-3-yl)acrylamide], `O=C(/C=C/c1cccnc1)NCC[C@@H]1[C@H]2CN(c3nc(OCCN4CCOCC4)ncc3F)C[C@@H]12` [Example 331, (E)-N-(2-((1R,5S,6s)-3-(5-fluoro-2-(2-morpholinoethoxy)pyrimidin-4-yl)-3-azabicyclo[3.1.0]hexan-6-yl)ethyl)-3-(pyridin-3-yl)acrylamide] is lower in IC50: 0.01 to 0.49 µM for the first, under 0.01 µM for the second. The second is the more potent here.
